Experimental data: ChEMBL document CHEMBL1150356, “Design, synthesis and biological evaluation of substituted pyrrolo[2,3-d]pyrimidines as multiple receptor tyrosine kinase inhibitors and antiangiogenic agents” (Bioorg Med Chem, 2008)

Tests used:
[1] = molecular target: Vascular endothelial growth factor receptor 1 (Homo sapiens, UniProt P17948); experiment: Inhibition of VEGFR1 expressed in human tumor cells
A-431 = experiment: cells; details: Homo sapiens
Description: Cytotoxicity against human A431 cells

[2] = molecular target: Platelet-derived growth factor receptor beta (Homo sapiens, UniProt P09619); experiment: Inhibition of PDGFRbeta expressed in human tumor cells
Sequence of Platelet-derived growth factor receptor beta (P09619 whole entry): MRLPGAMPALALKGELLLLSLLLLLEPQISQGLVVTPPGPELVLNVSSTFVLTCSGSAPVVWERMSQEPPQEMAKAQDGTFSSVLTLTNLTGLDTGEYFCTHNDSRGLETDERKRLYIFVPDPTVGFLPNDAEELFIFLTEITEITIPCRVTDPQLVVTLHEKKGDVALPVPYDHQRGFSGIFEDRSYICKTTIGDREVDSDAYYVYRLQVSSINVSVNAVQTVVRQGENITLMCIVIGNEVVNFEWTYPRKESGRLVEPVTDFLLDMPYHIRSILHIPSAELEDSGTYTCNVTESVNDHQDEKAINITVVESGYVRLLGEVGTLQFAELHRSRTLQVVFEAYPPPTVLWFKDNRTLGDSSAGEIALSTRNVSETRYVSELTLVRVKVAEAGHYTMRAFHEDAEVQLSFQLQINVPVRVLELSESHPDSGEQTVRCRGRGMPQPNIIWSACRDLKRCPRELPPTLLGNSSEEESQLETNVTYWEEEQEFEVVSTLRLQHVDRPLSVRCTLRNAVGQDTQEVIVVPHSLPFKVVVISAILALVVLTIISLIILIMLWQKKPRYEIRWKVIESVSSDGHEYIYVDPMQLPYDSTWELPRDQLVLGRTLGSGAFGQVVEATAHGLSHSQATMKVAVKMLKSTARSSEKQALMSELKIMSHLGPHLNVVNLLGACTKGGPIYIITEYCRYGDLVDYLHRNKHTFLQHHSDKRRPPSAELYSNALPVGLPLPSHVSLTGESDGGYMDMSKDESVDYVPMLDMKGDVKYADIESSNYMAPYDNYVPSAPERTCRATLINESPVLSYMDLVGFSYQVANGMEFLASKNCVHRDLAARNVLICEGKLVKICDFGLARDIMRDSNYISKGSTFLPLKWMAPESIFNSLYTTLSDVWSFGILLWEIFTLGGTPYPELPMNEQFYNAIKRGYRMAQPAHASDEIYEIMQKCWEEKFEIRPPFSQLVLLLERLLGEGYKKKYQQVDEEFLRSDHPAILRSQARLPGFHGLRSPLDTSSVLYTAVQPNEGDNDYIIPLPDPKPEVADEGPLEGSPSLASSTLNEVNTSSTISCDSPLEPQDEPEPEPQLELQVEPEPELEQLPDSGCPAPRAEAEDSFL

[3] = molecular target: Epidermal growth factor receptor (Homo sapiens, UniProt P00533); experiment: Inhibition of EGFR expressed in human tumor cells
Sequence of Epidermal growth factor receptor (P00533 whole entry): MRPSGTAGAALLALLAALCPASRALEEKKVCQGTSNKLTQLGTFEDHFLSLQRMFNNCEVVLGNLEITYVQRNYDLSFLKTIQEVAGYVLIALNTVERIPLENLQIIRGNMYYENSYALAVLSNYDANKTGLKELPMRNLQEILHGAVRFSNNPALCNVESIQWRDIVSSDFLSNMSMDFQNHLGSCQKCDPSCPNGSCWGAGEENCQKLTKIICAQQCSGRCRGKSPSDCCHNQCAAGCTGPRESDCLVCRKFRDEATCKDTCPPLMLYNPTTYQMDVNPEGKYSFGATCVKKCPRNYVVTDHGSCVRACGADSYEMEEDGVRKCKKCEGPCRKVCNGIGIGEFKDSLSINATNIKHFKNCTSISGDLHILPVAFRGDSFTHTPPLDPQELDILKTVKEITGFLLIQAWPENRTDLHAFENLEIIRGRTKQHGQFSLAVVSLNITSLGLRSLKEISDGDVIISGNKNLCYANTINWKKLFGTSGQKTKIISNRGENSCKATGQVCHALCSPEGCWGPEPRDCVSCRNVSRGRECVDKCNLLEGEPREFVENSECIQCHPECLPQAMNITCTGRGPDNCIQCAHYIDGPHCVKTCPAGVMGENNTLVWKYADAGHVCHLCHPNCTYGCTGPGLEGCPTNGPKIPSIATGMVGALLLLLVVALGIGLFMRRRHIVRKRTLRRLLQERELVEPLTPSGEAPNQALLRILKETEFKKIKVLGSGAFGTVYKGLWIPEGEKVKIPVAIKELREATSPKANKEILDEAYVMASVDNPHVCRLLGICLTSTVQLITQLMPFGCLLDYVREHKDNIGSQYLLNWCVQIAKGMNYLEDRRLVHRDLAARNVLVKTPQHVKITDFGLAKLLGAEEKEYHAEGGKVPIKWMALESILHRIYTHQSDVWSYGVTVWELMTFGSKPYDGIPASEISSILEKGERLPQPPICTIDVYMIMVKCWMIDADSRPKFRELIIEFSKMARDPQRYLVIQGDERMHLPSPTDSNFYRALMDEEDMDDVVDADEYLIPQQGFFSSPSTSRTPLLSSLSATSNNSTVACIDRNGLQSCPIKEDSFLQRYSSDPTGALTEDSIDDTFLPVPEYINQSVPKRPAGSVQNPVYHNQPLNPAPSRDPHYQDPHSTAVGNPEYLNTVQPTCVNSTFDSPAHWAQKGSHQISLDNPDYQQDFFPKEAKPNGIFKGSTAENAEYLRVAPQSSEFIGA

Gallus gallus = species: Gallus gallus; experiment: Antiangiogenic activity against fertile leghorn chicken eggs by CAM assay; assay type: functional, organism-based
[4] = molecular target: Vascular endothelial growth factor receptor 2 (Homo sapiens, UniProt P35968)
Sequence of Vascular endothelial growth factor receptor 2 (P35968 whole entry): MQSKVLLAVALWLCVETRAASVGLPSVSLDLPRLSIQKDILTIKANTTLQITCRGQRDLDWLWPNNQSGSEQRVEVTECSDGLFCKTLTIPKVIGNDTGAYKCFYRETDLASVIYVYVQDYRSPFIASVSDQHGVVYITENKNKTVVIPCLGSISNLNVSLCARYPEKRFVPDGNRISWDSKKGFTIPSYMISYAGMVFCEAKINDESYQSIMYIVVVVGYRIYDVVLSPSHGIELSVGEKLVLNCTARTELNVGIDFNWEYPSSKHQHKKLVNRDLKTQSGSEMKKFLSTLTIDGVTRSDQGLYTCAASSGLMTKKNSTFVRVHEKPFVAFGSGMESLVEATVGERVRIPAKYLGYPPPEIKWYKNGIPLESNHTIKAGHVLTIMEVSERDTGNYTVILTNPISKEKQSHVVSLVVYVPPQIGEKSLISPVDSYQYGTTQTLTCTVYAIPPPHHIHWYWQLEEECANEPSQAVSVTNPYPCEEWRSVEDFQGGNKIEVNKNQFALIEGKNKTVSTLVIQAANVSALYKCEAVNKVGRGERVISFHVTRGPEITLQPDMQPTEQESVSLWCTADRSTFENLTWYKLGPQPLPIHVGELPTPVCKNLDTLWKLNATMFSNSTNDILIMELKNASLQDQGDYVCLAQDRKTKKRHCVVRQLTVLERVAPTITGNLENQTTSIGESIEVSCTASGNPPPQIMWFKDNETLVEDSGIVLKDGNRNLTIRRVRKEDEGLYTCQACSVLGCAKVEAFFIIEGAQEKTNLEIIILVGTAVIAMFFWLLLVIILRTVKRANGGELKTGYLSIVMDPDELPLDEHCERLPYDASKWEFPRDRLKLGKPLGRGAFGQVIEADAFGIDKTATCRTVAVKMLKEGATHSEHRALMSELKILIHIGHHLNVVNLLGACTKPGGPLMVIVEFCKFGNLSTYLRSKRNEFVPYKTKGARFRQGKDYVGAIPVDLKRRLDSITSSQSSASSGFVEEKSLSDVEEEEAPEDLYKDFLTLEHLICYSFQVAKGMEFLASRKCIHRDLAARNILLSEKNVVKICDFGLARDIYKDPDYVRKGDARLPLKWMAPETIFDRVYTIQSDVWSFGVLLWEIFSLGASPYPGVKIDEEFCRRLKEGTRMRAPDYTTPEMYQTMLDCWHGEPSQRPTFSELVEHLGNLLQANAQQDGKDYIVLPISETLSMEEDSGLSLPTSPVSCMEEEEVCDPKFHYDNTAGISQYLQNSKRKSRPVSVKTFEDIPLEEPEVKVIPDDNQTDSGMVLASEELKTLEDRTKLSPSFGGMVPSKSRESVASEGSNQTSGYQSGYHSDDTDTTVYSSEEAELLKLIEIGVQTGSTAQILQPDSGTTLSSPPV
Description: Inhibition of VEGFR2 expressed in human tumor cells

Sequence of Vascular endothelial growth factor receptor 1 (P17948 whole entry): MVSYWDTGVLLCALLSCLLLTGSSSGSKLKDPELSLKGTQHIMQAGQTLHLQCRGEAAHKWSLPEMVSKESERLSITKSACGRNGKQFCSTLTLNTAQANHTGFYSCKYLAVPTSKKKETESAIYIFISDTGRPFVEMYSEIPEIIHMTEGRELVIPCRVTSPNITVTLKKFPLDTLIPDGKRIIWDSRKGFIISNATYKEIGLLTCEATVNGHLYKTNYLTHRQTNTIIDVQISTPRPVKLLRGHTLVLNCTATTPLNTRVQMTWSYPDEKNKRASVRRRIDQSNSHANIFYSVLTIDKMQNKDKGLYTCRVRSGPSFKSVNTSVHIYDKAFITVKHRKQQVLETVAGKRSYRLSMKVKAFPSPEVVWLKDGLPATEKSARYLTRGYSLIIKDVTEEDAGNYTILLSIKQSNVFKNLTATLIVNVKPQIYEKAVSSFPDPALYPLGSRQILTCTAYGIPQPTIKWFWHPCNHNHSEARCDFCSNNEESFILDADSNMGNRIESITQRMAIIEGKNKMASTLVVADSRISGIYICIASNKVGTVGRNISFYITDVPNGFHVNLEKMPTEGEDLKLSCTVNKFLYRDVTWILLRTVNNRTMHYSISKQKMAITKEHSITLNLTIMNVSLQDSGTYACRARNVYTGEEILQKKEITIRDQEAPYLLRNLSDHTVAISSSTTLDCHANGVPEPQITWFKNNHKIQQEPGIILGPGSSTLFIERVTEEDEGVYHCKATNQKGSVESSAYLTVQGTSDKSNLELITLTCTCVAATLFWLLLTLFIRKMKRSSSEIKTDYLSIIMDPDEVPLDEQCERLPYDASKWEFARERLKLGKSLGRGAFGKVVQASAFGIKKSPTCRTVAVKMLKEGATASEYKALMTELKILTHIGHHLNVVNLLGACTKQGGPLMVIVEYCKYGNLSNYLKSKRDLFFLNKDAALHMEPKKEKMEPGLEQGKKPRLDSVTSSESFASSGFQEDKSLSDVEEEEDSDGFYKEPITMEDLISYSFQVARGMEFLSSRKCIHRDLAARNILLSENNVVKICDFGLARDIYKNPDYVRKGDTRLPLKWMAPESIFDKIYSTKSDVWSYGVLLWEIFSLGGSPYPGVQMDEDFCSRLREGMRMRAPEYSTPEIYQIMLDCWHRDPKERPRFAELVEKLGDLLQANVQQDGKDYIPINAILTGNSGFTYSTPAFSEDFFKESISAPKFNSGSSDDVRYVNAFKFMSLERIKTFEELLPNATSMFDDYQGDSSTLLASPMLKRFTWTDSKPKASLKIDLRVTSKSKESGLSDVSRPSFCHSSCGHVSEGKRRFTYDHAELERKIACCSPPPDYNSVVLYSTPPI

IC50 [1] [µM] | IC50 (A-431) [µM] | IC50 [2] [µM] | IC50 [3] [µM] | IC50 (Gallus gallus) [µM] | IC50 [4] [µM] | Compound
31.8 | > 50 | > 50 | 2.2 | 21.1 | > 50 | COc1ccc(CCc2cc3c(Nc4cccc(Br)c4)nc(N)nc3[nH]2)cc1
> 200 | 1.6 | > 500 | 3.18 | 3.3 | > 200 | Nc1nc(Nc2ccc(Cl)cc2)c2cc(CCc3ccccc3)[nH]c2n1
> 200 | 3.4 | > 500 | > 200 | – | 198 | Nc1nc(Nc2ccc(F)c(Br)c2)c2cc(CCc3ccccc3)[nH]c2n1
11.2 | 8.2 | 11 | 4.8 | 15.2 | – | Nc1nc(Nc2cccc(Br)c2)c2cc(CCc3cccc4ccccc34)[nH]c2n1
> 200 | – | > 500 | 1.32 | – | > 200 | Nc1nc(Nc2ccc(Cl)cc2F)c2cc(CCc3ccccc3)[nH]c2n1
7.8 | > 50 | 13.7 | 4.7 | 18.9 | 16.8 | Nc1nc(Nc2cccc(Br)c2)c2cc(CCc3ccc4ccccc4c3)[nH]c2n1
32.7 | 13.2 | > 50 | 3.4 | 10.1 | 42.3 | Nc1nc(Nc2cccc(Br)c2)c2cc(CCc3ccccc3Cl)[nH]c2n1
> 200 | – | 100 | > 200 | – | > 200 | C#Cc1cccc(Nc2nc(N)nc3[nH]c(CCc4ccccc4)cc23)c1

The remaining lines, values behind:

Compound | IC50 [1] [µM] | IC50 (A-431) [µM] | IC50 [2] [µM] | IC50 [3] [µM] | IC50 (Gallus gallus) [µM] | IC50 [4] [µM]
Nc1nc(Nc2ccc3[nH]ccc3c2)c2cc(CCc3ccccc3)[nH]c2n1 | > 200 | – | 77.4 | > 200 | – | 24.9
Nc1nc(Nc2cccc(Br)c2)c2cc(Cc3cccc4ccccc34)[nH]c2n1 | – | – | – | – | 0.053 | –
Nc1nc(Nc2cccc(Br)c2)c2cc(Cc3ccccc3Cl)[nH]c2n1 | – | – | > 50 | – | 1.7 | –
Nc1nc(Nc2cccc(Br)c2)c2cc(Cc3ccc4ccccc4c3)[nH]c2n1 | – | – | > 50 | – | – | –
Nc1nc(Nc2cccc(Br)c2)c2cc(Cc3ccccc3)[nH]c2n1 | – | – | > 50 | – | – | –
Nc1nc(Nc2cccc(C(F)(F)F)c2)c2cc(CCc3ccccc3)[nH]c2n1 | > 200 | – | > 500 | > 200 | – | > 200
Nc1nc(Nc2ccc(F)c(Cl)c2)c2cc(CCc3ccccc3)[nH]c2n1 | > 200 | 6.8 | > 500 | 22.8 | 5.9 | 132
Nc1nc(Nc2ccc(F)c(C(F)(F)F)c2)c2cc(CCc3ccccc3)[nH]c2n1 | > 200 | – | 90 | 122 | – | > 200
Nc1nc(Nc2cccc(Br)c2)c2cc(CCc3ccccc3)[nH]c2n1 | 45.1 | – | 11.8 | 0.3 | 19.5 | > 50
